Data published in patent US11208408B2, “Method of controlling scale in aqueous systems” (NOURYON CHEMICALS INTERNATIONAL B.V., priority 2019, dated 2021).
Counter-ions that a name gives are not always drawn.

Tests used:
[1] = Fluorescent signal of polymers diluted to 10 ppm at pH 9 (Shimadzu RF-6000 spectro fluorimeter); assay type: physicochemical; conditions: non-monomer intermediate at 59 ppb
Description: The polymer samples from Polymer Examples 1-4 each were diluted in water to 10 ppm and the pH was adjusted to 9, and the fluorescent signal was determined by excitation of the sample at the excitation wavelengths and measurement at the emission wavelengths as stated in Table 1 using a Shimadzu RF-6000 model spectro fluorimeter.
The fluorescence signal for the polymer of Example 1 at 10 ppm and at pH 9 was measured. Also, the fluorescence intensity of the intermediate N-(3-dimethylaminopropyl)-4-methoxy-1,8-naphthalilmide non-monomer intermediate used to synthesize the monomer used in Example 1 was measured at pH 9 and at 59 ppb. The 59 ppb was used because this is the amount of monomer that would have been present in 10 ppm of polymer.

[2] = Fluorescent signal of starting amine, monomers and polymers at pH 7 (Example 22); assay type: physicochemical; conditions: 45 ppb of amine or monomer
Description: The fluorescent signal for the starting N-(3-dimethylaminopropyl)-4-methoxy-1,8-naphthalilmide, the monomers from Monomer Example 3 and 3a (comparative) and the polymers of Polymer Example 20 (comparative) and Polymer Example 21 were measured at 10 ppm polymer and 45 ppb of N-(3-dimethylaminopropyl)-4-methoxy-1,8-naphthalilmide and monomers at pH 7.

| Compound | Emission wavelength λ [1] | Excitation wavelength λ [1] | Fluorescence intensity [1] | Emission wavelength λ [2] | Excitation wavelength λ [2] | Fluorescence intensity [2] |
| --- | --- | --- | --- | --- | --- | --- |
| COc1ccc2c3c(cccc13)C(=O)N(CCCN(C)C)C2=O [N-(3-dimethylaminopropyl)-4-methoxy-1,8-naphthalimide] | 462 nm | 376 nm | 7788 | 460 nm | 376 nm | 9850 |
| C=CCOCC(O)C[N+](C)(C)CCCN1C(=O)c2cccc3c(OC)ccc(c23)C1=O (stereo not drawn) [Monomer Example 3, 4-methoxy-N-(3-dimethylaminopropyl)-1,8-naphthalimide, 1 or 2-hydroxy-3-allyloxy propyl, quaternary salt] | – | – | – | 460 nm | 376 nm | 6774 |
| 4-methoxy-N-(3-dimethylaminopropyl)-1,8-naphthalimide, 2-hydroxy-3-allyloxy propyl, quaternary salt [Monomer Example 3a, reference compound] | – | – | – | 460 nm | 376 nm | 8312 |
